Calls of active or inactive are those of the source. The rule behind the calls is not given here.
Assays:
[1] = biological target: T1, Protein deacetylase HDAC6 (Homo sapiens, UniProt Q9UBN7); assay: (§1) Inhibition of N-terminal GST-tagged full length recombinant human HDAC6 (1 to 1215 end residues) expressed in sf9 cells using ZMAL (Z-Lys(Ac)-AMC as fluorogenic substrate preincubated with compound for 60 mins followed by substrate addition and measured after 90 mins by fluorescence based microplate reader analysis
T1 sequence (Q9UBN7 whole entry): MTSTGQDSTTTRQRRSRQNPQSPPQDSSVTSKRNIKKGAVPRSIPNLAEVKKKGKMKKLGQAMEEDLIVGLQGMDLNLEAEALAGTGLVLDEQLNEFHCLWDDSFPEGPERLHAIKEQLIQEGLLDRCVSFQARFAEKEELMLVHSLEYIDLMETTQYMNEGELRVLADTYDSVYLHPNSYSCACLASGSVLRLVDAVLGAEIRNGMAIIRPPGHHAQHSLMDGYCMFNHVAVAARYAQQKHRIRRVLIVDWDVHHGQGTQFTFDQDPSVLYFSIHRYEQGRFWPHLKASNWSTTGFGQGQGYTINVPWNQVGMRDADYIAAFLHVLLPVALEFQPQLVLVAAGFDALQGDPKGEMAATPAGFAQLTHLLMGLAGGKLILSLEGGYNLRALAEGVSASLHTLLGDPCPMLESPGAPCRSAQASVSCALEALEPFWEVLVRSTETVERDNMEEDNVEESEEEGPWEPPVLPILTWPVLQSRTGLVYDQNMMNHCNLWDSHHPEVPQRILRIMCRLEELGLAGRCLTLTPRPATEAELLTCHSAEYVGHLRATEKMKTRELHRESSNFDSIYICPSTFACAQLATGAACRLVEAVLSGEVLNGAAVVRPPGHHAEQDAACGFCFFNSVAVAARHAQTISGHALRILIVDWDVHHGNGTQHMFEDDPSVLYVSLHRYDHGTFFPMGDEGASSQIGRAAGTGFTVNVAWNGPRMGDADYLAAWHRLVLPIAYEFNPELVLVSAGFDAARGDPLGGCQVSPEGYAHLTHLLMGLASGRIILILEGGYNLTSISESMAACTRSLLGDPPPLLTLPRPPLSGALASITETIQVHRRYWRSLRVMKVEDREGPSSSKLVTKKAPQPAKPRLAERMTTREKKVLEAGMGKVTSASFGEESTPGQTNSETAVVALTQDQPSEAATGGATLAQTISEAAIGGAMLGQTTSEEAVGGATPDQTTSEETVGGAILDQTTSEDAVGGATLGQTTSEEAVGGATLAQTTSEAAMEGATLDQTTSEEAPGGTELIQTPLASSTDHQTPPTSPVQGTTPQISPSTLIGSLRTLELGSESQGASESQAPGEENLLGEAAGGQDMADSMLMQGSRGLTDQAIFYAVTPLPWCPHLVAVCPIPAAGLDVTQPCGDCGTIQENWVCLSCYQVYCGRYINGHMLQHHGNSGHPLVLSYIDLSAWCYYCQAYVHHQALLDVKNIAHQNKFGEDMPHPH

[2] = biological target: T2, Protein deacetylase HDAC6 (Homo sapiens) (UniProt Q9UBN7); assay: as §1, with “cells at > 10 uM” for “cells”, “analysis relative to control” for “analysis”; conditions: time 150.0 min
T2 sequence (whole entry): T1 sequence (Q9UBN7 whole entry)

Histone deacetylase 4 = Histone deacetylase 4 (Homo sapiens, UniProt P56524); assay: Inhibition of recombinant HDAC4 (unknown origin) using Bos-Lys(TFA)-AMC as substrate preincubated with compound for 5 mins and measured after 90 mins by NOVOstar microplate reader analysis
Sequence of Histone deacetylase 4 (P56524 whole entry): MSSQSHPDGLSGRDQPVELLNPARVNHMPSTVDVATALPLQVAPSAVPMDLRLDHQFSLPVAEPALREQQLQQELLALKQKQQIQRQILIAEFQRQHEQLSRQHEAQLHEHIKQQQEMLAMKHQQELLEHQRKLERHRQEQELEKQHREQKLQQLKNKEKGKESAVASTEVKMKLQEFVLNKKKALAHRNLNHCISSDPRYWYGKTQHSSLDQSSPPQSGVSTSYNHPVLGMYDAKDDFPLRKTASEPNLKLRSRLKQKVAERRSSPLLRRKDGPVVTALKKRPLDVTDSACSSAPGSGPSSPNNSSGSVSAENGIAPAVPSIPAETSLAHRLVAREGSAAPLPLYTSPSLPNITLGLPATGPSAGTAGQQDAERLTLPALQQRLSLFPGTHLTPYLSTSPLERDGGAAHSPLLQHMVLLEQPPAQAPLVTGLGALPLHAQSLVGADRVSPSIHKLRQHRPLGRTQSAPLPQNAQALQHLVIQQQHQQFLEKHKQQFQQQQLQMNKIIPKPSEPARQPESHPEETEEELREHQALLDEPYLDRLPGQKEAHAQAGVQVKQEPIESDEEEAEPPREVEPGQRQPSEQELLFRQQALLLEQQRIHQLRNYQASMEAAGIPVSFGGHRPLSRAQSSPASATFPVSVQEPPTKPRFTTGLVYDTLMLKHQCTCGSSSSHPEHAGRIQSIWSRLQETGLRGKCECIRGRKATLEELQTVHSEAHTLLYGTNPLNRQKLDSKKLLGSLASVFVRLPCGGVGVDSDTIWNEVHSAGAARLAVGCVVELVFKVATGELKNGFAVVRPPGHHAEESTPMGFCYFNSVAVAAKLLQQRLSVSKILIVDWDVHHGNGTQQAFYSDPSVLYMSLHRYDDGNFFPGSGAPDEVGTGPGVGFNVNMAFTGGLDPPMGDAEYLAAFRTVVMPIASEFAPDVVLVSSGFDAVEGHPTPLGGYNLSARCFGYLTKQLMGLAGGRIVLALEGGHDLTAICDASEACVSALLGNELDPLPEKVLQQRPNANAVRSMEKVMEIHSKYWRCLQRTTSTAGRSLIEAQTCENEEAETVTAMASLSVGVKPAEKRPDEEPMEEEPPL

cells [3] = conditions: Homo sapiens, A2780
cells [4] = conditions: Homo sapiens, A2780cisR
cells [5] = conditions: Homo sapiens, CAL-27
cells [6] = conditions: Homo sapiens, Cal27CisR
A2780 [7] = assay: cells; conditions: Homo sapiens, A2780, 72 h
A2780cisR [8] = assay: cells; conditions: Homo sapiens, 72 h
CAL-27 [9] = assay: cells; conditions: Homo sapiens, CAL-27, 72 h
cells [10] = conditions: Homo sapiens, Cal27CisR, 72 h
cells [11] = conditions: Homo sapiens, A2780; remark: listed apart in the source
cells [12] = conditions: Homo sapiens, A2780cisR; remark: listed apart in the source
cells [13] = conditions: Homo sapiens, CAL-27; remark: listed apart in the source
cells [14] = conditions: Homo sapiens, Cal27CisR; remark: listed apart in the source
[15] = biological target: Histone deacetylase 3/Nuclear receptor corepressor 2 (HDAC3/NCoR2) (Homo sapiens, UniProt O15379); format: cell-based, Sf9
Sequence of Histone deacetylase 3/Nuclear receptor corepressor 2 (HDAC3/NCoR2) (O15379 whole entry): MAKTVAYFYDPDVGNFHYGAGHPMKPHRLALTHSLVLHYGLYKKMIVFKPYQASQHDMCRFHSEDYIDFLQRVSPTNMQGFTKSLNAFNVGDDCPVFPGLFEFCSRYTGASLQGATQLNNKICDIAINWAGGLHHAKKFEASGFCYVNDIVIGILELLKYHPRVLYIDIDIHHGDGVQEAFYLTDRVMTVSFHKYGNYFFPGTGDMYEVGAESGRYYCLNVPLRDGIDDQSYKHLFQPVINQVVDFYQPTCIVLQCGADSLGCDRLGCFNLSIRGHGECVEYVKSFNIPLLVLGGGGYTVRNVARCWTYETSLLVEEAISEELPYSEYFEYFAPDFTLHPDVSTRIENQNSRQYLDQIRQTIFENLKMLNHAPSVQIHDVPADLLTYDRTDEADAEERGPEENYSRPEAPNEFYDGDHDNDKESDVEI
Sequence of Histone deacetylase 3/Nuclear receptor corepressor 2 (HDAC3/NCoR2) (Q9Y618 whole entry, further chain): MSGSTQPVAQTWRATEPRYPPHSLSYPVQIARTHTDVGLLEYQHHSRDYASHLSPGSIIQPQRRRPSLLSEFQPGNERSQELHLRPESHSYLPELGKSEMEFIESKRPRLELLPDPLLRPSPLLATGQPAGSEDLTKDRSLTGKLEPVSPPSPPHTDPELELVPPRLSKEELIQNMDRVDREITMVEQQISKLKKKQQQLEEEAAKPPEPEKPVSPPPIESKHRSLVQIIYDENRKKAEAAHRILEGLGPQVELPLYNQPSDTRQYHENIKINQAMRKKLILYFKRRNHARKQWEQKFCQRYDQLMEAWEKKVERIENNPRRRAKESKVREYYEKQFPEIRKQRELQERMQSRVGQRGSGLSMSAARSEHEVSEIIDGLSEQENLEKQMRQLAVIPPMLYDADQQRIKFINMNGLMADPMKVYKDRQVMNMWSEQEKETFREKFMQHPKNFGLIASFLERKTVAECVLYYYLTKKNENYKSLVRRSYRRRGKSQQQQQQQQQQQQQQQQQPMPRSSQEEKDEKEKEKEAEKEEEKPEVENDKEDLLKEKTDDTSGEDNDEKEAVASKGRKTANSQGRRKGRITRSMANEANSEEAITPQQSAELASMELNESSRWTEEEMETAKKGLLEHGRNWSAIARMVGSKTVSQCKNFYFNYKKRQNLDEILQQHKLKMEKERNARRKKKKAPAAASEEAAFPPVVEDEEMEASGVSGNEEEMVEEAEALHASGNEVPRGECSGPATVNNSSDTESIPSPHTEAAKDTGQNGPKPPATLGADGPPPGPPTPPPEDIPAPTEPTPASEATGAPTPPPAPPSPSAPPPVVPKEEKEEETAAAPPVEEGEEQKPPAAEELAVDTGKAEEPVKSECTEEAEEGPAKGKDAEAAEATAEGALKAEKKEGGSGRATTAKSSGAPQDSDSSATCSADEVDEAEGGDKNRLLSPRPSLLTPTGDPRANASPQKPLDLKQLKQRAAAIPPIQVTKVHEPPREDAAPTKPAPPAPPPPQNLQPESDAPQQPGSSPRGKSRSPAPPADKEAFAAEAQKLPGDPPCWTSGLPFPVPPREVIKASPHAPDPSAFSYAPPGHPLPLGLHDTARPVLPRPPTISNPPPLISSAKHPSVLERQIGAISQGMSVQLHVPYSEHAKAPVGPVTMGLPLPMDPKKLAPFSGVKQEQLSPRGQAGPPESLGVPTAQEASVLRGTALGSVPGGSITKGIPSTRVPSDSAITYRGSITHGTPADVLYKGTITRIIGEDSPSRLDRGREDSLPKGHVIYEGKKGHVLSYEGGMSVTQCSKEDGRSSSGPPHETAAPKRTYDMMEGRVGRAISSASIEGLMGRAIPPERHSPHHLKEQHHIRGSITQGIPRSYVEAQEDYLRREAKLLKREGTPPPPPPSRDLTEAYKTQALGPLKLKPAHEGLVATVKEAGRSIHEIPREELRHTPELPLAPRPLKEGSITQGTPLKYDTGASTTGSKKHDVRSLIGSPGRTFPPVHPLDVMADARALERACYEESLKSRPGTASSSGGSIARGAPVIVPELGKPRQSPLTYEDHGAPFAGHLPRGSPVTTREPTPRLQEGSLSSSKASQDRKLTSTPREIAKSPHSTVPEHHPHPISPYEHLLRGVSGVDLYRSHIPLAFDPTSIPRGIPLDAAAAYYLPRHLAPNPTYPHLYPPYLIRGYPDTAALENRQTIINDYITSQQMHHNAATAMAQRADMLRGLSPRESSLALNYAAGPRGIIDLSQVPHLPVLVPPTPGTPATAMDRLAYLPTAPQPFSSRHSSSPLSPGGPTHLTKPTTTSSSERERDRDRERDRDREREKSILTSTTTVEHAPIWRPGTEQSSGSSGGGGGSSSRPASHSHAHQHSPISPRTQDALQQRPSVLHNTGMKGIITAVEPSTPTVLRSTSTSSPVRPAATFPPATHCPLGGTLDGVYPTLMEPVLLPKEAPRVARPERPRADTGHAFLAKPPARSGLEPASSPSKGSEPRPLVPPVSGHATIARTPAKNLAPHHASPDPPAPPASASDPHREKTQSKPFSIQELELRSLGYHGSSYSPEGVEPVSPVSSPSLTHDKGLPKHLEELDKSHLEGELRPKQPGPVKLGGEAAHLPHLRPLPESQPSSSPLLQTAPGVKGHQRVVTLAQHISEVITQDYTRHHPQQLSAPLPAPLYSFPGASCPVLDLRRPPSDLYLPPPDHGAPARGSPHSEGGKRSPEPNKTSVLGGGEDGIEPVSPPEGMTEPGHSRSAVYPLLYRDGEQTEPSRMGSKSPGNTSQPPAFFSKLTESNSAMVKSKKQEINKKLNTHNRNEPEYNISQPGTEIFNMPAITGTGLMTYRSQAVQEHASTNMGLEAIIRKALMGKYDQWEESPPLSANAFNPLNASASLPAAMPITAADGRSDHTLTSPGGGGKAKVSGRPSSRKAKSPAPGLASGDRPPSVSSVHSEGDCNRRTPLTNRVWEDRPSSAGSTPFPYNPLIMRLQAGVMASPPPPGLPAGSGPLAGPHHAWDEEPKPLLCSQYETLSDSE

[16] = biological target: T2, Protein deacetylase HDAC6 (Homo sapiens); assay: as §1, with “cells at > 3.33 uM” for “cells”, “analysis relative to control” for “analysis”
[17] = biological target: T3, Histone deacetylase 8 (Homo sapiens) (UniProt Q9BY41); assay: Inhibition of recombinant HDAC8 (unknown origin) at > 10 uM using Bos-Lys(TFA)-AMC as substrate preincubated with compound for 5 mins and measured after 90 mins by NOVOstar microplate reader analysis relative to control; conditions: time 95.0 min
T3 sequence (whole entry): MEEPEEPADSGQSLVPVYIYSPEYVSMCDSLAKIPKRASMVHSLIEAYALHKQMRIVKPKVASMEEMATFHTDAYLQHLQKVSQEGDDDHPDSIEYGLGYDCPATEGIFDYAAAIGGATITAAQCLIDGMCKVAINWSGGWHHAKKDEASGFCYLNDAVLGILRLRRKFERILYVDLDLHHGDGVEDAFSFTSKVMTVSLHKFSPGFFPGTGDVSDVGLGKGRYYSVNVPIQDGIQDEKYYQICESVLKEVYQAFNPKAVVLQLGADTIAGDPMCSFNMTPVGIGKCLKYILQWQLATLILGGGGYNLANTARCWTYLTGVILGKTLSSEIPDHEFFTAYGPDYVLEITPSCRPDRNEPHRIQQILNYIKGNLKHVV

Histone deacetylase 8 = biological target: T4, Histone deacetylase 8 (Homo sapiens, UniProt Q9BY41); assay: Inhibition of recombinant HDAC8 (unknown origin) using Bos-Lys(TFA)-AMC as substrate preincubated with compound for 5 mins and measured after 90 mins by NOVOstar microplate reader analysis
T4 sequence (Q9BY41 whole entry): T3 sequence (whole entry)

[18] = biological target: T2, Protein deacetylase HDAC6 (Homo sapiens); assay: as §1, with “cells at 10 uM” for “cells”, “analysis relative to control” for “analysis”; conditions: time 150.0 min
Histone deacetylase 1 = Histone deacetylase 1 (Homo sapiens, UniProt Q13547); assay: (§2) Inhibition of C-terminal 6-his/FLAG tagged full length human recombinant HDAC1 (1 to 482 end residues) expressed in sf9 cells at 10 uM using ZMAL (Z-Lys(Ac)-AMC as fluorogenic substrate preincubated with compound for 60 mins followed by substrate addition and measured after 90 mins by fluorescence based microplate reader analysis relative to control; conditions: time 150.0 min
Sequence of Histone deacetylase 1 (Q13547 whole entry): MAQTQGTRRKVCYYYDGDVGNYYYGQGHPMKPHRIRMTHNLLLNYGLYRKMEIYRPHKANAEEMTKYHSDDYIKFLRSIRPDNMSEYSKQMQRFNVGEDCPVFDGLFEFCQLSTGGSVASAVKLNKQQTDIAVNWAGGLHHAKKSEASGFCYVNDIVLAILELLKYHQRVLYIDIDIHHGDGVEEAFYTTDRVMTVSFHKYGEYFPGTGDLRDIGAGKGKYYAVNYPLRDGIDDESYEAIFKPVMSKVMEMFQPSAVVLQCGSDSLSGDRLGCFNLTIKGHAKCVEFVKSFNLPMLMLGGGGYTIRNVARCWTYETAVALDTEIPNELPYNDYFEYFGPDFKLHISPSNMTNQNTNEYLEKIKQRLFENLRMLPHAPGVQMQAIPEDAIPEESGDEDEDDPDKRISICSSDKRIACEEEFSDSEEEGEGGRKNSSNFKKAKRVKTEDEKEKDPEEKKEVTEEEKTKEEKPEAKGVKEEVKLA

[19] = biological target: Histone deacetylase 2 (Homo sapiens) (UniProt Q92769); assay: as §2, with “FLAG” for “6-his/FLAG”, “HDAC2” for “HDAC1”, “488” for “482”; conditions: time 150.0 min
Sequence of Histone deacetylase 2 (Homo sapiens) (Q92769 whole entry): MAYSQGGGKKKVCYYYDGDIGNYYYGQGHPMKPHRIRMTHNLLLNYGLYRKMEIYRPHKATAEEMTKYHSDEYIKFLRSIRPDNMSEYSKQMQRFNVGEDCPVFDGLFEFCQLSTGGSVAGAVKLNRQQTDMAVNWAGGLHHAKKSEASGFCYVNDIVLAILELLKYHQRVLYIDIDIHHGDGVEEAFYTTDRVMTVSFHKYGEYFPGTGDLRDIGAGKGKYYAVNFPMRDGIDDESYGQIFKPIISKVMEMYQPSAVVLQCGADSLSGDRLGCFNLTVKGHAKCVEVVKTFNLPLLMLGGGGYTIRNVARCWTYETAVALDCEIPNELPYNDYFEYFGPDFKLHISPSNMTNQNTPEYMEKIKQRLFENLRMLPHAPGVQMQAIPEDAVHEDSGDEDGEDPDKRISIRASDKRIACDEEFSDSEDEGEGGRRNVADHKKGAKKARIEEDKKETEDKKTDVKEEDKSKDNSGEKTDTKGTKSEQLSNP

[20] = biological target: T5, Histone deacetylase 3/Nuclear receptor corepressor 2 (HDAC3/NCoR2) (Homo sapiens) (UniProt O15379+Q9Y618); assay: as §2, with “His” for “6-his/FLAG”, “tagged” for “tagged full length”, “HDAC3” for “HDAC1”, “428” for “482”, “residues)/N-terminal GST-tagged human NcoR2” for “residues)”; conditions: time 150.0 min
A2780 [21] = assay: Cytotoxicity against human A2780 cells at < 100 uM assessed as reduction in cell viability incubated for 72 hrs by MTT assay; format: functional, cell-based
A2780cisR [22] = assay: Cytotoxicity against cisplatin resistant human A2780 cisR cells at < 100 uM assessed as reduction in cell viability incubated for 72 hrs by MTT assay; format: functional, cell-based
Cal27CisR = assay: Cytotoxicity against cisplatin resistant human Cal27CisR cells at < 10 uM assessed as reduction in cell viability incubated for 72 hrs by MTT assay; format: functional, cell-based
[23] = biological target: T5, Histone deacetylase 3/Nuclear receptor corepressor 2 (HDAC3/NCoR2) (Homo sapiens); assay: Inhibition of C-terminal His tagged human recombinant HDAC3 (1 to 428 end residues)/N-terminal GST-tagged human NcoR2 expressed in sf9 cells at > 10 uM using ZMAL (Z-Lys(Ac)-AMC as fluorogenic substrate preincubated with compound for 60 mins followed by substrate addition and measured after 90 mins by fluorescence based microplate reader analysis relative to control; conditions: time 150.0 min
A2780 [24] = assay: Inhibition of class I/6 HDAC (unknown origin) in human A2780 cells at < 100 uM using Boc-Lys(epsilon-Ac)-AMC as substrate preincubated with compound for 18 hrs followed by substrate addition and measured after 3 hrs by NOVOstar microplate reader analysis; format: cell-based
A2780 cisR = assay: Inhibition of class I/6 HDAC (unknown origin) in cisplatin resistant human A2780 cisR cells at < 100 uM using Boc-Lys(epsilon-Ac)-AMC as substrate preincubated with compound for 18 hrs followed by substrate addition and measured after 3 hrs by NOVOstar microplate reader analysis; format: cell-based
CAL-27 [25] = assay: Cytotoxicity against human CAL-27 cells at < 100 uM assessed as reduction in cell viability incubated for 72 hrs by MTT assay; format: functional, cell-based

| Compound | IC50 [1] [µM] | inhibition [2] [%] | IC50 (Histone deacetylase 4) [µM] | IC50 (cells [3]) [µM] | IC50 (cells [4]) [µM] | IC50 (cells [5]) [µM] | IC50 (cells [6]) [µM] | IC50 (A2780 [7]) [µM] | IC50 (A2780cisR [8]) [µM] | IC50 (CAL-27 [9]) [µM] | IC50 (cells [10]) [µM] | IC50 [15] [µM] | inhibition [17] [%] | IC50 (Histone deacetylase 8) [µM] | Activity (A2780cisR [22]) | Activity (Cal27CisR) | further results |
| --- | --- | --- | --- | --- | --- | --- | --- | --- | --- | --- | --- | --- | --- | --- | --- | --- | --- |
| CN(C)c1ccc(C(=O)N(CC(=O)NCc2ccccc2)Cc2ccc(C(=O)NNCC3CC3)cc2)cc1 | > 10 | < 25 | > 10 | 0.722 | 0.974 | 0.388 | 0.392 | 2.61 | 9.08 | 1.99 | 2.67 | – | – | – | – | – | IC50 (cells [11]): 8.56 µM; IC50 (cells [12]): 11.9 µM; IC50 (cells [13]): 2.97 µM; IC50 (cells [14]): 1.28 µM |
| CN(C)c1ccc(C(=O)N(CC(=O)NCc2ccccc2)Cc2ccc(C(=O)NNCCCc3ccccc3)cc2)cc1 | > 10 | – | > 10 | 2.21 | 2.97 | 2.46 | 1.96 | 5.9 | 35.5 | 10.3 | 21.6 | 1.2 | – | – | – | – | inhibition [16]: < 25% |
| CN(C)c1ccc(C(=O)N(CC(=O)NCc2ccccc2)Cc2ccc(C(=O)NNCCC(F)(F)F)cc2)cc1 | > 10 | < 25 | > 10 | 0.691 | 0.91 | 0.379 | 0.385 | 2.25 | 8.05 | 2.2 | 3.14 | 0.037 | < 25 | > 10 | – | – | – |
| CN(C)c1ccc(C(=O)N(CC(=O)NCc2ccccc2)Cc2ccc(C(=O)NN)cc2)cc1 | – | – | > 10 | 33.1 | 37.7 | 30.9 | 35.9 | – | – | 63.5 | – | – | < 25 | > 10 | inactive | inactive | inhibition [18]: 55%; inhibition (Histone deacetylase 1): 62%; inhibition [19]: 53%; inhibition [20]: 57%; Activity (A2780 [21]): inactive |
| CN(C)c1ccc(C(=O)N(CC(=O)NCc2ccccc2)Cc2ccc(C(=O)NNc3ccccc3)cc2)cc1 | > 10 | < 25 | > 10 | 27.7 | 36 | 21.5 | 24.3 | – | – | 60.8 | – | 3.82 | < 25 | > 10 | inactive | inactive | Activity (A2780 [21]): inactive |
| CN(C)c1ccc(C(=O)N(CC(=O)NCc2ccccc2)Cc2ccc(C(=O)Nc3ccccc3N)cc2)cc1 | > 10 | – | > 10 | 1.22 | 1.63 | 0.327 | 0.491 | 4.33 | 8.28 | 2 | 2.63 | – | – | > 10 | – | – | IC50 (cells [11]): 49.8 µM; IC50 (cells [12]): 47.6 µM; IC50 (cells [13]): 9.34 µM; IC50 (cells [14]): 6.47 µM |

Now from value to compound, other results behind:

| IC50 [1] [µM] | inhibition [2] [%] | IC50 (Histone deacetylase 4) [µM] | IC50 (cells [3]) [µM] | IC50 (cells [4]) [µM] | IC50 (cells [5]) [µM] | IC50 (cells [6]) [µM] | IC50 (A2780 [7]) [µM] | IC50 (A2780cisR [8]) [µM] | IC50 (CAL-27 [9]) [µM] | IC50 (cells [10]) [µM] | IC50 [15] [µM] | inhibition [17] [%] | IC50 (Histone deacetylase 8) [µM] | Compound | Activity (A2780cisR [22]) | Activity (Cal27CisR) | further results |
| --- | --- | --- | --- | --- | --- | --- | --- | --- | --- | --- | --- | --- | --- | --- | --- | --- | --- |
| > 10 | < 25 | > 10 | 2.91 | 2.08 | 0.83 | 0.931 | 4.94 | 15.8 | 3.41 | 8.5 | 0.199 | – | – | CC(C)CCNNC(=O)c1ccc(CN(CC(=O)NCc2ccccc2)C(=O)c2ccc(N(C)C)cc2)cc1 | – | – | – |
| > 10 | < 25 | > 10 | – | – | 83.4 | 43.6 | 70.2 | – | – | – | > 10 | < 25 | > 10 | CN(C)c1ccc(C(=O)N(CC(=O)NCc2ccccc2)Cc2ccc(C(=O)NNCCC(C)(C)C)cc2)cc1 | inactive | inactive | inhibition (Histone deacetylase 1): 63%; inhibition [19]: 46%; inhibition [23]: < 25%; inhibition (A2780 [24]): inactive; inhibition (A2780 cisR): inactive; Activity (CAL-27 [25]): inactive |
| > 3.33 | – | > 10 | 0.273 | 0.334 | 0.264 | 0.218 | 0.675 | 3.38 | 0.843 | 1.5 | 0.072 | – | – | CCCCCNNC(=O)c1ccc(CN(CC(=O)NCc2ccccc2)C(=O)c2ccc(N(C)C)cc2)cc1 | – | – | inhibition [16]: < 25% |

From ChEMBL document CHEMBL6120974, “Hydrazide-Based Class I Selective HDAC Inhibitors Completely Reverse Chemoresistance Synergistically in Platinum-Resistant Solid Cancer Cells” (J Med Chem, 2024)
